# Measurements taken from ChEMBL document CHEMBL5053549, “Discovery of Potent and Novel Dual PARP/BRD4 Inhibitors for Efficient Treatment of Pancreatic Cancer” (J Med Chem, 2021).
# pIC50: −log10 of the molar value.
# Columns and labels:
# [1] = target: Poly [ADP-ribose] polymerase 1 (Homo sapiens, UniProt P09874); assay: Inhibition of PARP1 (unknown origin) incubated for 45 mins in presence of biotinylated-NAD+ by microplate reader analysis
# [2] = target: T1, Bromodomain-containing protein 4 (Homo sapiens, UniProt O60885); assay: Inhibition of recombinant BRD4 (unknown origin) at 0.5 uM incubated for 120 mins by TR-FRET assay relative to control
# [3] = target: T1, Bromodomain-containing protein 4; assay: Inhibition of recombinant BRD4 (unknown origin) incubated for 120 mins by TR-FRET assay
# [4] = test system: MDA-MB-231; assay: Antiproliferative activity against human MDA-MB-231 cells assessed as reduction in cell viability after 7 days; format: functional, cell-based; conditions: MDA-MB-231, 168 h
# [5] = test system: SW1990; assay: Antiproliferative activity against human SW1990 cells assessed as reduction in cell viability after 4 days by MTT assay; format: functional, cell-based; conditions: SW1990, 96 h
# Poly [ADP-ribose] polymerase 1, sequence (P09874 whole entry): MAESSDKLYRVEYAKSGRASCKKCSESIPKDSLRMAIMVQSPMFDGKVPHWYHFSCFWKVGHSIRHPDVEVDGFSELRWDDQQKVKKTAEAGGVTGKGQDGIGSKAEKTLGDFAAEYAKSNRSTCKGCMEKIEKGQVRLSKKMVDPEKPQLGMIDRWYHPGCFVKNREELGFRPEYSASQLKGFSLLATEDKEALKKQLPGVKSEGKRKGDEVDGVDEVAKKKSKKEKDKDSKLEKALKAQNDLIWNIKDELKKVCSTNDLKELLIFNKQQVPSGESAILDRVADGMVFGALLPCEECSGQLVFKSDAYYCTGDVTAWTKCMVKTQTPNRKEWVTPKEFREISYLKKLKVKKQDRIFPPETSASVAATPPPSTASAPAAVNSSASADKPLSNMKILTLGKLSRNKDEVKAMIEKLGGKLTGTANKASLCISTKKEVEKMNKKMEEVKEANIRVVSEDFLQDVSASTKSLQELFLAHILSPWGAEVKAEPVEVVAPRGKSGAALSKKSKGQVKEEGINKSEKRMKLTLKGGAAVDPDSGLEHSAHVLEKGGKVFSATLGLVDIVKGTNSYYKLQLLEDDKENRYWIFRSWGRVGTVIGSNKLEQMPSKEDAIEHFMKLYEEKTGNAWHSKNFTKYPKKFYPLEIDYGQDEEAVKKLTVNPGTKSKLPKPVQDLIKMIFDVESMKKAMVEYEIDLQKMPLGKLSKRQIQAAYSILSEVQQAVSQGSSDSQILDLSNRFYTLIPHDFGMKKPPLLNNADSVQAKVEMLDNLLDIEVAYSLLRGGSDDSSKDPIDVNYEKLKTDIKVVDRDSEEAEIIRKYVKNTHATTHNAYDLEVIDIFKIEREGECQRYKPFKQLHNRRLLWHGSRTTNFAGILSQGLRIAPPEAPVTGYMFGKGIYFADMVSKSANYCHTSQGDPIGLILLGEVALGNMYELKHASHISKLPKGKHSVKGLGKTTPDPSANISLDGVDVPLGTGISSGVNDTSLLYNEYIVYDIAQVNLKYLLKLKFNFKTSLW
SMILES,pIC50 [1],inhibition [2] [%],pIC50 [3],pIC50 [4],pIC50 [5]
CC[C@@H]1C(=O)N(C)c2cnc(Nc3ccc(-c4nc5c(C(N)=O)cccc5[nH]4)cc3OC)nc2N1Cc1cccc(C(F)(F)F)c1,5.76,17,,,
CC[C@@H]1C(=O)N(C)c2cnc(Nc3ccc(-c4nc5c(C(N)=O)cccc5[nH]4)cc3OC)nc2N1Cc1ccc(OC)cc1OC,6.24,17,,,
CC[C@@H]1C(=O)N(C)c2cnc(Nc3ccc(-c4nc5c(C(N)=O)cccc5[nH]4)cc3OC)nc2N1Cc1ccccc1,6.34,21,,,
CC[C@@H]1C(=O)N(C)c2cnc(Nc3ccc(-c4nc5c(C(N)=O)cccc5[nH]4)cc3OC(C)C)nc2N1C1CCCC1,5.69,75,,,
CC[C@@H]1C(=O)N(C)c2cnc(Nc3ccc(CC(=O)NCc4nc5c(C(N)=O)cccc5[nH]4)cc3OC)nc2N1C1CCCC1,6.30,,6.56,,
CC[C@@H]1C(=O)N(C)c2cnc(Nc3ccc(-c4nc5c(C(N)=O)cccc5[nH]4)cc3OC)nc2N1Cc1ccc(C)s1,6.47,52,,5.90,5.43

# Further lines, results first:
pIC50 [1],inhibition [2] [%],pIC50 [3],pIC50 [4],pIC50 [5],SMILES
6.45,,6.73,6.09,5.51,CC[C@@H]1C(=O)N(C)c2cnc(Nc3ccc(Cc4nc5c(C(N)=O)cccc5[nH]4)cc3OC)nc2N1C1CCCC1
6.82,,6.63,6.37,5.67,CC[C@@H]1C(=O)N(C)c2cnc(Nc3ccc(-c4nc5c(C(N)=O)cccc5[nH]4)cc3OC)nc2N1C1CCCC1
6.63,74,,,,CC[C@@H]1C(=O)N(C)c2cnc(Nc3ccc(C(C)c4nc5c(C(N)=O)cccc5[nH]4)cc3OC)nc2N1C1CCCC1 (some centres undefined)
